How the values were obtained:
[1] = tested on: COX2/PGE2; test: Effect of dapansutrile on COX2/PGE2; settings: immunosuppressive pathway in PDAC
[2] = tested on: KPC cells, a murine PDAC cell line; test: Orthotopic KPC pancreatic cancer model in mice, dapansutrile and gemcitabine combination (Example 2); format: in vivo, C57BL/6 male mice; settings: sacrifice after 21 days; gemcitabine 100 mg/kg i.p. every three days from day 10; dapansutrile diet; vs PBS vehicle (combination also vs monotherapies)
Method: Tumor-bearing mice were prepared according to Example 1 and monitored daily until the sacrifice after 21 days.
Mice treated with dapansutrile were fed with dapansutrile by the same protocol as described in Example 1.
Control mice received PBS
At sacrifice, tumor volume and tumor weight were assessed in the 4 groups of mice.

[3] = healthy subjects, oral; cited from earlier work
[4] = tested on: KPC cells, a murine PDAC cell line; test: Orthotopic KPC pancreatic cancer model in mice, dapansutrile diet (Example 1); format: in vivo, C57BL/6 male mice; settings: dapansutrile diet 7.5 g/kg food ad libitum from surgery, sacrifice after 21 days, vs standard diet
Method: C57BL/6 male mice (8 weeks old) were purchased from Jackson Laboratories (Bar Harbor, ME). Mice were anesthetized and following opening the abdominal cavity, the tip of pancreatic tail was gently grasped, and the pancreas/spleen was externalized in a lateral direction, exposing the entire pancreatic body and spleen. 100,000 KPC cells, a murine PDAC cell line, were mixed 1:1 with Matrigel (VF=20 μl) and injected into the tail of the pancreas. The pancreas was then gently internalized with blunt forceps and the abdominal muscle layer, and the skin was closed separately with absorbable sutures.
Following the initial injections of KPC cells, tumor bearing mice were monitored daily until the sacrifice after 21 days. At sacrifice, tumor volume and weight were assessed in the vehicle (n=16) and OLT1177® (dapansutrile)-treated mice (n=16).
From the date of surgery, mice were treated with oral dapansutrile via feed pellets ad libitum. The composition of the food is the standard mouse chow enriched with 7.5 gr of dapansutrile per kilogram of food. […]
At sacrifice, tumor volume in different groups was calculated using the modified ellipsoidal formula V=(LW^2)/2, where L is the length of the longest tumor dimension parallel to the skin containing the tumor midpoint, W is the length of the tumor dimension perpendicular to L and parallel to the skin, and V is tumor volume in cubic millimeters (mm^3).

[5] = tested on: non-immune cells; test: Effect of dapansutrile on non-immune cell proliferation
[6] = target: NLRP3 inflammasome (Homo sapiens, UniProt Q96P20); settings: cited from earlier work
Sequence of NLRP3 inflammasome (Q96P20 whole entry): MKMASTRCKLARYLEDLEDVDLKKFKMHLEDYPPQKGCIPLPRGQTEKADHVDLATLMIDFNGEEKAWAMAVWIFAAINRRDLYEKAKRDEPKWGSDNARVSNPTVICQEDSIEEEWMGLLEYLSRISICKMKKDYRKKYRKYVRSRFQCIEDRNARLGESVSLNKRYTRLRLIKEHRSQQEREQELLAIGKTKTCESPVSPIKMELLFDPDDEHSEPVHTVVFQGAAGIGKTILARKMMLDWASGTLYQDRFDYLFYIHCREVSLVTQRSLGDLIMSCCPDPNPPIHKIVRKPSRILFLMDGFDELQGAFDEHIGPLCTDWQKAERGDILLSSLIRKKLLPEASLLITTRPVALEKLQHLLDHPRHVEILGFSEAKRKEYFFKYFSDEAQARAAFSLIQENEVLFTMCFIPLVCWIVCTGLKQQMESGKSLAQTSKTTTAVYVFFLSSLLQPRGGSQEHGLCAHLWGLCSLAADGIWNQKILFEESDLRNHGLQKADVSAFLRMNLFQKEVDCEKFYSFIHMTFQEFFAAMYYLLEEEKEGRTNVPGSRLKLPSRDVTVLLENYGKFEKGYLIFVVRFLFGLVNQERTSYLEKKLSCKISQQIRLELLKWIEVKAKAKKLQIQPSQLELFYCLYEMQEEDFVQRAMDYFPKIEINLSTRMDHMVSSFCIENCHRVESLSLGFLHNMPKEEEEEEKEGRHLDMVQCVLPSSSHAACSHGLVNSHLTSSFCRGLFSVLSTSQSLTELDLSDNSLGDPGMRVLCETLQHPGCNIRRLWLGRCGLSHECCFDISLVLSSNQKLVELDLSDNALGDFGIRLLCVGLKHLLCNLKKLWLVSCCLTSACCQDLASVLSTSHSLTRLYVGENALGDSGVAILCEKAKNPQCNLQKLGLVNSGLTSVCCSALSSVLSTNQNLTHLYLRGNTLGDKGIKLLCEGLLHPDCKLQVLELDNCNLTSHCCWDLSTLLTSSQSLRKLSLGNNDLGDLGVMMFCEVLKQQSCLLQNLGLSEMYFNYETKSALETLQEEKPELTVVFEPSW

SMILES	COX2/PGE2 [1]	tumor volume [2]	tumor weight [2]	safety when orally administered [3]	tumor volume ([4]; p<0.0001)	tumor weight ([4]; p<0.01)	non-immune cells proliferation [5]	inhibition of the NLRP3 inflammasome [6]
CS(=O)(=O)CCC#N [dapansutrile, 3-methanesulfonyl-propionitrile]	significant reduction	significant reduction	significant reduction	safe	reduced tumor volume	reduced tumor weight	no effect	selectively inhibit
Nc1ccn([C@@H]2O[C@H](CO)[C@@H](O)C2(F)F)c(=O)n1 [gemcitabine, Gemcitabine, reference compound]	–	–	significant reduction	–	–	–	–	–

Reference: patent US20240358669A1, “METHODS FOR TREATING PANCREATIC CANCER” (Olatec Therapeutics, Inc., priority 2022, published 2024)
